From PubChem BioAssay AID1963979 (Molecular Pharmacology Branch, DTP, NCI, 2024)

Test system: 361931-004-R-J1-PDC multicell spheroid viability
Assay: Anticancer human tumor 361931-004-R-J1-PDC patient-derived colon adenocarcinoma cell line growth inhibition [PI3K]
Conditions: for IC50: curve of first compound; for viability, T/C: stronger effect = lower value
Outline: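 Targeted small molecules plus PI3K inhibitors, half-log dose series from Cmax (default top 10 microM), were applied to heterotypic spheroids of cancer cells with HUVEC and MSCs. Viability indicated growth inhibition.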

[1] = second compound 0.0316 µM, first compound 0.0316 µM
[2] = second compound 0.0316 µM, first compound 0.1 µM
[3] = second compound 0.0316 µM, first compound 0.316 µM
[4] = second compound 0.0316 µM, first compound 1 µM
[5] = second compound 0.0316 µM, first compound 3.16 µM
[6] = second compound 0.0316 µM, first compound 10 µM
[7] = second compound 0.1 µM, first compound 0.0316 µM
[8] = second compound 0.1 µM, first compound 0.1 µM
[9] = second compound 0.1 µM, first compound 0.316 µM
[10] = second compound 0.1 µM, first compound 1 µM
[11] = second compound 0.1 µM, first compound 3.16 µM
[12] = second compound 0.1 µM, first compound 10 µM
[13] = second compound 0.316 µM, first compound 0.0316 µM
[14] = second compound 0.316 µM, first compound 0.1 µM
[15] = second compound 0.316 µM, first compound 0.316 µM
[16] = second compound 0.316 µM, first compound 1 µM
[17] = second compound 0.316 µM, first compound 3.16 µM
[18] = second compound 0.316 µM, first compound 10 µM
[19] = second compound 1 µM, first compound 0.0316 µM
[20] = second compound 1 µM, first compound 0.1 µM
[21] = second compound 1 µM, first compound 0.316 µM
[22] = second compound 1 µM, first compound 1 µM
[23] = second compound 1 µM, first compound 3.16 µM
[24] = second compound 1 µM, first compound 10 µM
[25] = second compound 3.16 µM, first compound 0.0316 µM
[26] = second compound 3.16 µM, first compound 0.1 µM
[27] = second compound 3.16 µM, first compound 0.316 µM
[28] = second compound 3.16 µM, first compound 1 µM
[29] = second compound 3.16 µM, first compound 3.16 µM
[30] = second compound 3.16 µM, first compound 10 µM
[31] = second compound 10 µM, first compound 0.0316 µM
[32] = second compound 10 µM, first compound 0.1 µM
[33] = second compound 10 µM, first compound 0.316 µM
[34] = second compound 10 µM, first compound 1 µM
[35] = second compound 10 µM, first compound 3.16 µM
[36] = second compound 10 µM, first compound 10 µM
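Note: spheroids exposed to agents for seven days before readout.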

C#Cc1c(F)ccc2cc(O)cc(-c3ncc4c(N5CC6CCC(C5)N6)nc(OCC56CCCN5CC(F)C6)nc4c3F)c12 (stereo not drawn) + CC(Nc1ncnc2nc[nH]c12)c1cc2cccc(Cl)c2c(=O)n1-c1ccccc1
IC50 (second compound 0.0316 µM): > 10 µM | IC50 (second compound 0.1 µM): > 10 µM | IC50 (second compound 0.316 µM): > 10 µM | IC50 (second compound 1 µM): > 10 µM | IC50 (second compound 3.16 µM): > 10 µM | IC50 (second compound 10 µM): > 10 µM | viability, T/C [1]: 98.8% | viability, T/C [2]: 105% | viability, T/C [3]: 105% | viability, T/C [4]: 102% | viability, T/C [5]: 98.9% | viability, T/C [6]: 95.1% | viability, T/C [7]: 105% | viability, T/C [8]: 103% | viability, T/C [9]: 96.8% | viability, T/C [10]: 100% | viability, T/C [11]: 104% | viability, T/C [12]: 93% | viability, T/C [13]: 106% | viability, T/C [14]: 99.7% | viability, T/C [15]: 105% | viability, T/C [16]: 100% | viability, T/C [17]: 102% | viability, T/C [18]: 93.3% | viability, T/C [19]: 97.7% | viability, T/C [20]: 98.6% | viability, T/C [21]: 100% | viability, T/C [22]: 95.2% | viability, T/C [23]: 104% | viability, T/C [24]: 84.4% | viability, T/C [25]: 104% | viability, T/C [26]: 107% | viability, T/C [27]: 103% | viability, T/C [28]: 106% | viability, T/C [29]: 107% | viability, T/C [30]: 81.9% | viability, T/C [31]: 104% | viability, T/C [32]: 99.8% | viability, T/C [33]: 91.9% | viability, T/C [34]: 91% | viability, T/C [35]: 90% | viability, T/C [36]: 79%

C=CC(=O)N1CCN(c2nc(=O)n(-c3c(C)ccnc3C(C)C)c3nc(-c4c(O)cccc4F)c(F)cc23)C(C)C1 (stereo not drawn) + CC(Nc1ncnc2nc[nH]c12)c1cc2cccc(Cl)c2c(=O)n1-c1ccccc1
IC50 (second compound 0.0316 µM): > 10 µM | IC50 (second compound 0.1 µM): > 10 µM | IC50 (second compound 0.316 µM): > 10 µM | IC50 (second compound 1 µM): > 10 µM | IC50 (second compound 3.16 µM): > 10 µM | IC50 (second compound 10 µM): > 10 µM | viability, T/C [1]: 102% | viability, T/C [2]: 102% | viability, T/C [3]: 104% | viability, T/C [4]: 104% | viability, T/C [5]: 102% | viability, T/C [6]: 99.3% | viability, T/C [7]: 100% | viability, T/C [8]: 95.8% | viability, T/C [9]: 103% | viability, T/C [10]: 111% | viability, T/C [11]: 104% | viability, T/C [12]: 92.5% | viability, T/C [13]: 105% | viability, T/C [14]: 108% | viability, T/C [15]: 103% | viability, T/C [16]: 98.3% | viability, T/C [17]: 107% | viability, T/C [18]: 86.8% | viability, T/C [19]: 98.7% | viability, T/C [20]: 109% | viability, T/C [21]: 103% | viability, T/C [22]: 106% | viability, T/C [23]: 102% | viability, T/C [24]: 90.5% | viability, T/C [25]: 100% | viability, T/C [26]: 103% | viability, T/C [27]: 99.9% | viability, T/C [28]: 104% | viability, T/C [29]: 106% | viability, T/C [30]: 89.9% | viability, T/C [31]: 104% | viability, T/C [32]: 108% | viability, T/C [33]: 98.2% | viability, T/C [34]: 100% | viability, T/C [35]: 101% | viability, T/C [36]: 93.6%

CC(Cn1ccc(-c2ccc(C#N)c(Cl)c2)n1)NC(=O)c1cc(C(C)O)[nH]n1 (stereo not drawn) + CC(Nc1ncnc2nc[nH]c12)c1cc2cccc(Cl)c2c(=O)n1-c1ccccc1
IC50 (second compound 0.0316 µM): > 10 µM | IC50 (second compound 0.1 µM): > 10 µM | IC50 (second compound 0.316 µM): > 10 µM | IC50 (second compound 1 µM): > 10 µM | IC50 (second compound 3.16 µM): > 10 µM | IC50 (second compound 10 µM): > 10 µM | viability, T/C [1]: 102% | viability, T/C [2]: 92.6% | viability, T/C [3]: 96.7% | viability, T/C [4]: 90% | viability, T/C [5]: 104% | viability, T/C [6]: 102% | viability, T/C [7]: 105% | viability, T/C [8]: 96.9% | viability, T/C [9]: 103% | viability, T/C [10]: 101% | viability, T/C [11]: 106% | viability, T/C [12]: 99.4% | viability, T/C [13]: 102% | viability, T/C [14]: 103% | viability, T/C [15]: 104% | viability, T/C [16]: 103% | viability, T/C [17]: 108% | viability, T/C [18]: 97.4% | viability, T/C [19]: 99.5% | viability, T/C [20]: 102% | viability, T/C [21]: 96.4% | viability, T/C [22]: 98% | viability, T/C [23]: 100% | viability, T/C [24]: 106% | viability, T/C [25]: 98.8% | viability, T/C [26]: 104% | viability, T/C [27]: 100% | viability, T/C [28]: 104% | viability, T/C [29]: 103% | viability, T/C [30]: 104% | viability, T/C [31]: 105% | viability, T/C [32]: 95.9% | viability, T/C [33]: 100% | viability, T/C [34]: 99% | viability, T/C [35]: 109% | viability, T/C [36]: 98.7%

CC1(C)CCC(Nc2ncc(C(F)(F)F)c(-c3c[nH]c4c(P(C)(C)=O)c(C#N)ccc34)n2)CN1 (stereo not drawn) + CC(Nc1ncnc2nc[nH]c12)c1cc2cccc(Cl)c2c(=O)n1-c1ccccc1
IC50 (second compound 0.0316 µM): 6.27 µM | IC50 (second compound 0.1 µM): 5.92 µM | IC50 (second compound 0.316 µM): 5.95 µM | IC50 (second compound 1 µM): 5.58 µM | IC50 (second compound 3.16 µM): 5.2 µM | IC50 (second compound 10 µM): 4.73 µM | viability, T/C [1]: 106% | viability, T/C [2]: 108% | viability, T/C [3]: 104% | viability, T/C [4]: 101% | viability, T/C [5]: 103% | viability, T/C [6]: 13.7% | viability, T/C [7]: 122% | viability, T/C [8]: 103% | viability, T/C [9]: 96% | viability, T/C [10]: 101% | viability, T/C [11]: 93.4% | viability, T/C [12]: 14.5% | viability, T/C [13]: 108% | viability, T/C [14]: 106% | viability, T/C [15]: 99.4% | viability, T/C [16]: 98% | viability, T/C [17]: 95.8% | viability, T/C [18]: 12.4% | viability, T/C [19]: 110% | viability, T/C [20]: 101% | viability, T/C [21]: 98.8% | viability, T/C [22]: 98.4% | viability, T/C [23]: 86.9% | viability, T/C [24]: 12.8% | viability, T/C [25]: 105% | viability, T/C [26]: 94.9% | viability, T/C [27]: 95.8% | viability, T/C [28]: 94.1% | viability, T/C [29]: 80.6% | viability, T/C [30]: 10.6% | viability, T/C [31]: 93.1% | viability, T/C [32]: 90.8% | viability, T/C [33]: 88.9% | viability, T/C [34]: 88% | viability, T/C [35]: 74% | viability, T/C [36]: 5.6%
